Article PMC3479139, “Diverse Small Molecule Inhibitors of Human Apurinic/Apyrimidinic Endonuclease APE1 Identified from a Screen of a Large Public Collection” (PLoS ONE, 2012)

Assays:
APE1 [1] = biological target: T1, APE1 (Homo sapiens, UniProt P27695); experiment: Fluorogenic kinetic qHTS APE1 incision assay (primary screen and retest of cherrypicked samples); type: biochemical;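 also: purified APE1 cleaving a fluorophore/dark-quencher labelled 17-mer duplex DNA bearing a tetrahydrofuran AP site, fluorescence rise followed kinetically over the first 2 min, inhibition normalized to controls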
T1 construct: made in house
Protocol: All screening operations were performed on a fully integrated robotic system (Kalypsys, San Diego, CA) [28] with library plates screened proceeding from the lowest to the highest concentration to minimize compound carryover [26]. Vehicle-only plates, with DMSO being pin-transferred to the entire column 5–48 compound area, were included regularly throughout the screen in order to record any systematic shifts in assay signal. During the screen, reagent bottles were kept at 4°C and all liquid lines were covered with aluminum foil to minimize degradation.
Screening data were corrected and normalized, and concentration–effect relationships was derived using in-house developed algorithms [25].
To screen for inhibitors of APE1 incision activity, we employed a purified-enzyme biochemical assay with a model substrate featuring a red-shifted fluorescent reporter in combination with a dark non-emitting quencher. These moieties were incorporated as end labels onto a 17-mer double-stranded DNA fragment containing a centrally-located tetrahydrofuran AP site sugar mimetic, which serves as the APE1 cleavage site. Upon APE1-catalyzed strand scission immediately 5′ to the AP site analog, the shortened oligodeoxynucleotide carrying the fluorescent reporter spontaneously dissociates from the rest of the substrate, leading to an increase in fluorescence due to its spatial separation from the dark quencher (Figure 1A).
Using a high-speed whole-plate fluorescence imager, the assay data for the entire screen was conducted in kinetic mode, with the APE1 incision reaction being monitored over the initial linear time frame of 2 min (Figure 1B). Thus, any inhibition associated with each sample was computed from the alteration in fluorescence intensity over the time-course measurement period, after normalization against the appropriate controls (Figure 1B, inset).

APE1 [2] = biological target: T1, APE1; experiment: Gel-based APE1 incision assay with fluorescence (TAMRA) detection; type: biochemical
Protocol: To test the compounds’ inhibitory activity after the primary screen, two assays designed to monitor the cleavage of substrate to product through electrophoretic separation were utilized. The radiotracer incision assay, utilizing a ^32P-labeled substrate, was performed essentially as described [21], [31], [32]. Incision reactions utilizing ^32P-labeled substrate were carried out for 5 min at 37°C. After the addition of an equal volume of stop buffer (0.05% bromophenol blue and xylene cyanol, 20 mM EDTA, 95% formamide), the substrate and product were separated on a standard polyacrylamide denaturing gel and quantified by PhosphorImager analysis [32]. […] APE1 cleavage of the substrate results in a 18-mer TAMRA-labeled fragment which was separated by a non-denaturing polyacrylamide gel electrophoresis and quantitated in a Gel Doc XR imaging system, BioRad (Hercules, CA). The advantage of this assay is that it can be used in a relatively high throughput mode with the inhibitors tested at a range of concentrations (0.17 µM to 125 µM was used here). APE1 (0.15 nM) was added to a reaction mixture of 20 µL containing assay buffer (40 mM HEPES pH 7.5, 50 mM NaCl, 1 mM MgCl2 and 2 mM DTT), and labeled ds DNA substrate (final 75 nM). The mixture was incubated at RT for 15 min, and the reaction was stopped by the addition 20 µL of 2X dye stop solution (10% glycerol, 20 mM EDTA and bromophenol blue). Then 10 µL of the mixture was resolved on 20% polyacrylamide gel in 1X Tris-borate EDTA running buffer at 250 V for 40 min.
To eliminate false positive hits, all 595 confirmed molecules were tested for their ability to inhibit APE1 incision activity using biochemical assays that involve electrophoretic separation of the substrate and cleavage product.

APE1 [3] = biological target: T1, APE1; experiment: Fluorescence polarization (FP) displacement assay of APE1 binding to AP-DNA probe; details: read-out: FP IC50;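 also: TAMRA 5′-labeled duplex DNA with THF abasic site (5 nM) and APE1 (20 nM), Mg2+-free buffer, 15 min at room temperature, inhibition seen as lowered polarization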
Protocol: Double-stranded oligodeoxynucleotide containing tetrahydrofuran (THF) abasic site labeled with TAMRA at the 5′-end was used as the labeled binding probe. Inhibition of APE1 binding to labeled probe was detected by a decrease in the fluorescence polarization (FP) of the fluorophore. Briefly, 4 µL mixture of 20 nM APE1 and 5 nM probe contained in the enzymatic assay buffer from which Mg^2+ was omitted, was dispensed into 1536-well Greiner black solid bottom plates. Compounds (23 nL) were transferred via pintool, and after a 15-minute incubation at room temperature, fluorescence polarization was measured in a ViewLux High-throughput CCD imager (480 nm excitation and 540 nm emission) to determine the degree of probe displacement caused by the test compounds.

[4] = biological target: double-stranded 17-mer DNA fragment; experiment: ThO (Thiazole Orange) DNA displacement assay; type: binding; details: read-out: ThO-DNA binding IC50;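 also: miniaturized displacement of the intercalating dye from unlabeled duplex DNA, used to flag nonspecific DNA binders, chiefly intercalators, groove binders may be missed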
E. coli Endo IV = biological target: T2, E. coli Endo IV (Escherichia coli, UniProt P0A6C1); experiment: E. coli Endo IV profiling counterscreen; type: biochemical; details: read-out: EndoIV IC50;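 also: selectivity counterscreen of candidate APE1 inhibitors against the bacterial endonuclease Endo IV, run in the same assay format as the primary APE1 high-throughput screen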
T2 construct: made in house
Description: In order to screen out nonselective compounds, such as non-specific DNA binders and inhibitors of related enzymes, we used a miniaturized ThO DNA displacement assay and a counterscreen against the bacterial endonuclease E. coli Endo IV, respectively, following the previously published protocols [21].
To probe the selectivity of the candidate APE1 inhibitors, we tested them against E. coli EndoIV [36], employing the same assay as used in the HTS.

[5] = initial quantitative high-throughput screen, read-out: APE1 qHTS IC50
[6] = retest of cherrypicked sample, read-out: APE1 Retest IC50
[7] = estimated IC50, fluorophore detection, entries 113-223, read-out: F-PAGE Assay IC50
[8] = entries 113-223: fluorophore detection, estimated IC50, read-out: Gel-based electrophoretic separation assay with fluorophore detection, estimated IC50 (column headed Radiotracer Assay (%Activity))

T1 sequence (P27695 whole entry): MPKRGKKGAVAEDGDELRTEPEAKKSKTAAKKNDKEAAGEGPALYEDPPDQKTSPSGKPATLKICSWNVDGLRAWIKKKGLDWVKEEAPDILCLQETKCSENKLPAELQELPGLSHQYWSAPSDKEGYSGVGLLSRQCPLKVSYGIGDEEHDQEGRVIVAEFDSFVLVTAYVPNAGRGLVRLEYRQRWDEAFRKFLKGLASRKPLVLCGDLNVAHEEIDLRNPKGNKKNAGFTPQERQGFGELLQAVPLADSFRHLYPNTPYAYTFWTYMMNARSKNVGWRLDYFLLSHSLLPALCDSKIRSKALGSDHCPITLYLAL

Structure (SMILES)	IC50 (APE1 [1]; [5]) [µM]	IC50 (APE1 [1]; [6]) [µM]	IC50 (APE1 [2]; [7]) [µM]	IC50 (APE1 [3]) [µM]	IC50 [4] [µM]	IC50 (E. coli Endo IV) [µM]	IC50 (APE1 [2]; [8]) [µM]
CN(CC(=O)Nc1cccc(F)c1)C(=O)c1cccc(-n2cccc2)c1 [MLS001071694]	3.4	5.1	5	22.9	> 57	> 57	
CC(=O)Nc1ccc(S(=O)(=O)NCCC(=O)OCC(=O)N2CCN(C(=O)c3ccco3)CC2)cc1 [MLS001078987]	16.8			20.4	> 57	> 57	22.4
CN(CC(=O)Nc1c(Cl)cccc1Cl)C(=O)c1cccc(-n2cccc2)c1 [MLS001079471]	4.2	11.5	2.5	10.2	> 57	> 57	
COCCN(C(=O)COC(=O)c1cc2c(s1)CCC2)c1c(N)n(Cc2ccccc2)c(=O)[nH]c1=O [MLS001080179]	0.8	1.1	0.3	> 57	> 57	> 57	
COc1ccc(NC(=O)CN(C)C(=O)c2cc3c(s2)CCC3)cc1 [MLS001081306]	1.9	7.3	0.1	> 57	40.8	> 57	
COc1ccc(NC(=O)CN(C)C(=O)c2cccc(-n3cccc3)c2)cc1 [MLS001097639]	2.4	18.2	3.5	> 57	> 57	> 57	
CCCN(C(=O)c1cccc(-n2cccc2)c1)c1c(N)n(Cc2ccccc2)c(=O)[nH]c1=O [MLS001098232]	6.7	6.5	2.8	20.4	> 57	> 57	
Cc1ccc(NC(=O)CN(C)C(=O)c2cc(-c3ccco3)nc3ccccc23)cc1 [MLS001099510]	5.3	22.9	3.5	> 57	> 57	> 57	
CCN(CC(=O)Nc1c(F)cccc1F)C(=O)/C=C/c1ccc2ccccc2n1 [MLS001128172]	1.7	20.4	4	> 57	> 57	> 57	
COc1cc(-c2nnc(COC(=O)c3ccc(C)o3)o2)cc(OC)c1OC [MLS001139127]	23.8	32.4		> 57	> 57	> 57	14.1
Nc1c(/C=C2/C=CC(=O)C(O)=C2)c(=O)nc2sc(CC(=O)N3CCCCC3)nn12 [MLS001139223]	1.9	2	2.5	> 57	> 57	> 57	
Nc1c(/C=C2/C=CC(=O)C(O)=C2)c(=O)nc2sc(CC(=O)N3CCCC3)nn12 [MLS001139292]	10.6	6.5	1	> 57	> 57	> 57	
O=C(c1cccc(-n2cccc2)c1)N1CCN(S(=O)(=O)c2ccccc2)CC1 [MLS001139594]	1.5	11.5	2.5	> 57	> 57	> 57	
Cc1coc2c(C)c3oc(=O)c(CCC(=O)N[C@@H](C)C(=O)N[C@@H](Cc4ccccc4)C(=O)O)c(C)c3cc12 [MLS001140219]	13.4	18.2		> 57	> 57	> 57	20
Cc1cccc(NC(=O)CNC(=O)c2cccc(-n3cccc3)c2)c1C [MLS001141795]	1.9	6.5	1.1	> 57	> 57	> 57	
COc1cccc(NC(=O)CN(C)C(=O)c2cc3c(s2)CCC3)c1 [MLS001142077]	10.6	32.4		> 57	20.4	> 57	10
O=C(CSc1nc2sc3c(c2c(=O)n1-c1ccccc1)CCCC3)NN=Cc1ccccc1C(=O)O [MLS001147809]	10.6	14.5		> 57	> 57	> 57	12.6
Cc1cccc(NC(=O)CNC(=O)CCc2nc3sc4c(c3c(=O)[nH]2)CCCC4)c1C [MLS001156641]	10.6	36.3	4	> 57	45.7	> 57	
COc1cccc(NC(=O)CN(C)C(=O)c2cc(-c3ccco3)nc3ccccc23)c1 [MLS001156783]	10.6	10.2	7.9	> 57	> 57	> 57	
